From patent US10758631B2, “Solid cyanine dyes” (LI-COR, Inc., priority 2017, dated 2020) come the findings set out here.

A short description of the series: Mouse urine: fluorescence of extracted urine after injection. It counts as in vivo. The note with it: mice, urine extracted with acetonitrile:methanol mix, imaged on Odyssey CLx imager. From the text:
The urine is extracted with an acetonitrile:methanol mix and imaged on an Odyssey CLx imager (LI-COR Biosciences).

Take `CC1(C)C(/C=C/C=C/C=C/C=C2\N(CCCCS(=O)(=O)O)c3ccc4ccccc4c3C2(C)C)=[N+](CCCCS(=O)(=O)[O-])c2ccc3ccccc3c21` [ICG, indocyanine green]: the “fluorescent signal in urine” value is recorded as “No fluorescent signal”.
